Measured values: patent US20190169181A1, “FUMAGILLOL COMPOUNDS AND METHODS OF MAKING AND USING SAME” (Zafgen, Inc., priority 2016, published 2019)

Columns and labels:
[1] = biological target: T1, recombinant human MetAP2 (Homo sapiens, UniProt P50579); test: Recombinant human MetAP2 enzyme inhibition assay (MAS peptide / amino acid oxidase / Amplex Ultrared readout); type: biochemical; settings: Flag tagged human recombinant MetAP2, 25 minutes at 25° C.
T1 construct: Flag; made in house
Experimental: Compounds are tested for their capacity to inhibit recombinant human MetAP2 activity using the following assay.
Flag tagged Human recombinant MetAP2 expressed and isolated for use as the enzyme source. 10 mM stock solutions of compounds were prepared in 100% DMSO and further diluted in 100% DMSO required concentration to 1 mM stocks. The stock compound solutions and DMSO vehicle controls were diluted to target final compound concentrations using assay buffer to a final concentration of 50 mM HEPES containing 100 mM NaCl, pH adjusted to 7.5. The MAS peptide was formulated to a 7.5 mM stock in distilled water and prior to use further diluted 1:4. […] 40 μl of enzyme was mixed with 100 μl of MnCl2 then further diluted in assay buffer to a final concentration of 16 μg/ml. To test for compound effect on MetAP2 enzyme activity, 5 μl of test compound, 10 μl of MAS substrate/amino acid oxidase mixture, 10 μl of MetAP2 was added to test wells in a 384 well black plate with blank wells containing no enzyme, replaced with 10 μl of assay buffer. All compounds were tested in duplicate on two occasions on the same day.
The plate was sealed with a TopSeal A cover and mixed briefly on an orbital mixer at 900 rpm. The plate was incubated for a further 25 minutes at 25° C. A 5× stock of Amplex buffer was prepared (0.25 M sodium phosphate, pH 7.4) and stored at 4° C. […] Horse radish peroxidase was diluted in […] of Amplex buffer, 100 μl of this was combined with 50 μl of Amplex Ultrared in […] of 1× Amplex buffer to generate sufficient detection reagent for a 384 well plate. 25 μl detection reagent was added to each well of the test plate, which was re-sealed and mixed briefly on an orbital shaker. The plate was transferred to an Envision Multi-label reader and RFU measured corresponding to excitation 531 nm and emission 595 nm. At the end of the MetAP2 incubation 25 μl Amplex/HRP mixture per well was added and the plate read plate on a plate reader.

[2] = tested on: Diet Induced Obese (DIO) C57BL/6 mice; test: 10 day DIO mouse model, weight loss vs. vehicle; type: in vivo; settings: 240 h; for inhibition in vivo at 0.3 mg/kg: 0.3 mpk sc once a day for 10 days; for inhibition in vivo at 1 mg/kg: 1.0 mpk sc once a day for 10 days
From the text: The objective of this study design was to investigate the efficacy of disclosed compounds in a 10 day DIO mouse model. Effects on body weight, food intake, hematology and blood chemistry were the primary readouts of this study design. Male, Diet Induced Obese (DIO) C57BL/6 mice, 19-21 weeks of age (13-15 weeks on high fat diet) were ordered from a certified vendor and upon receipt were housed on irradiated corncob bedding in micro-isolator cages on a 12-hour light-dark cycle (0700-1900) at 68-74° F. and 30-70% humidity. Mice were fed Research Diets D12492 (60% Kcal fat, 20% Kcal carbohydrate and 20% protein) and provided water ad libitum. DIO mice were received and housed in the facility for approximately two weeks prior to the start of test article administration. On Day −4 or −3, mice were randomized into study groups based on body weight and body weights were continued to be recorded daily for the duration of the study. Daily food intake was assessed starting on Study Day −2 by weighing of the food with hopper together to avoid loss of food in transfer.
Compounds were formulated into a 100% DMSO stock (at 9 mg/mL) prior to the start, and further diluted into the target working concentration using the vehicle of 10% DMSO in water. Prior to test article administration, starting on Day −3 a dosing acclimation occurred with all animals receiving a subcutaneous injection of vehicle (10% DMSO) only for 3 days. Starting on Day 1, test compounds or vehicle were administered based on individual body weight, subcutaneously, once a day for 10 days. All mice were sacrificed on Day 11, 24 hours following the final dosing on Day 10. After sacrifice, whole blood was collected and analyzed for hematology and blood chemistry parameters.
Compounds were tested for weight loss vs. vehicle at 0.3 and 1.0 mpk sc (mg per kg animal weight delivered subcutaneously), and the results are shown in Table 2 below.

T1 sequence (P50579 whole entry): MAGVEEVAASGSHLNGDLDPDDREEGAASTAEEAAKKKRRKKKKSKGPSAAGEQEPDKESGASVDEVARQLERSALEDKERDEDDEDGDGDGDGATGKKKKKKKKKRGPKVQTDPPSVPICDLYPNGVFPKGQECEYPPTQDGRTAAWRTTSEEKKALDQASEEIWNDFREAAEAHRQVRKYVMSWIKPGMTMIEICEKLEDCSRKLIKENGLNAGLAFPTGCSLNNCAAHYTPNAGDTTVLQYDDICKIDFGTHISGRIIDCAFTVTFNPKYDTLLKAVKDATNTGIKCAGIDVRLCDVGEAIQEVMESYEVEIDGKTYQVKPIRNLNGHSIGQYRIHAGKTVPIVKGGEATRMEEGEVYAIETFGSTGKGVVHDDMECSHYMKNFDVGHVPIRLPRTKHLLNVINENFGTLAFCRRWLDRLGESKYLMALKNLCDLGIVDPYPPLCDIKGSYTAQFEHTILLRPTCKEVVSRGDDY

SMILES | IC50 [1] [nM] | inhibition in vivo at 0.3 mg/kg [2] [%] | inhibition in vivo at 1 mg/kg [2] [%]
CO[C@@H]1[C@H](OC(=O)N[C@H](Cc2nnc(N)s2)C(C)C)CC[C@]2(CO2)[C@H]1[C@@]1(C)O[C@@H]1CC=C(C)C [Example 36, (3R,4S,5S,6R)-5-methoxy-4-((2R,3R)-2-methyl-3-(3-methylbut-2-en-1-yl)oxiran-2-yl)-1-oxaspiro[2.5]octan-6-yl ((R)-1-(5-amino-1,3,4-thiadiazol-2-yl)-3-methylbutan-2-yl)carbamate] | 50 to 500 | – | 2
CO[C@@H]1[C@H](OC(=O)N[C@H](c2cn(CC(C)C)cn2)C(C)C)CC[C@]2(CO2)[C@H]1[C@@]1(C)O[C@@H]1CC=C(C)C [Example 42, (3R,4S,5S,6R)-5-methoxy-4-((2R,3R)-2-methyl-3-(3-methylbut-2-en-1-yl)oxiran-2-yl)-1-oxaspiro[2.5]octan-6-yl ((S)-1-(1-isobutyl-1H-imidazol-4-yl)-2-methylpropyl)carbamate] | < 50 | 10 | –
CO[C@@H]1[C@H](OC(=O)/C=C/c2ccc(OCCN(C)C)cc2)CC[C@]2(CO2)[C@H]1[C@@]1(C)O[C@@H]1CC=C(C)C [A, [(3R,6R,7S,8S)-7-methoxy-8-[(2R,3R)-2-methyl-3-(3-methylbut-2-enyl)oxiran-2-yl]-2-oxaspiro[2.5]octan-6-yl] (E)-3-[4-[2-(dimethylamino)ethoxy]phenyl]prop-2-enoate, reference compound] | – | 20 | 18
CO[C@@H]1[C@H](OC(=O)N(C)[C@H](c2cn(CC(C)C)cn2)C(C)C)CC[C@]2(CO2)[C@H]1[C@@]1(C)O[C@@H]1CC=C(C)C [Example 40, (3R,4S,5S,6R)-5-methoxy-4-((2R,3R)-2-methyl-3-(3-methylbut-2-enyl)oxiran-2-yl)-1-oxaspiro[2.5]octan-6-yl ((S)-1-(1-isobutyl-1H-imidazol-4-yl)-2-methylpropyl)(methyl)carbamate] | 50 to 500 | 2.3 | –
CNc1nnc([C@H](NC(=O)O[C@@H]2CC[C@]3(CO3)[C@@H]([C@@]3(C)O[C@@H]3CC=C(C)C)[C@@H]2OC)C(C)C)o1 [Example 3, (3R,5S,6R)-5-methoxy-4-((2R,3R)-2-methyl-3-(3-methylbut-2-enyl)oxiran-2-yl)-1-oxaspiro[2.5]octan-6-yl (R)-2-methyl-1-(5-(methylamino)-1,3,4-oxadiazol-2-yl)propylcarbamate] | 50 to 500 | 1.1 | –
CNc1nnc(C[C@@H](NC(=O)O[C@@H]2CC[C@]3(CO3)[C@@H]([C@@]3(C)O[C@@H]3CC=C(C)C)[C@@H]2OC)C(C)C)s1 [Example 35, (3R,4S,5S,6R)-5-methoxy-4-((2R,3R)-2-methyl-3-(3-methylbut-2-enyl)oxiran-2-yl)-1-oxaspiro[2.5]octan-6-yl (R)-3-methyl-1-(5-(methylamino)-1,3,4-thiadiazol-2-yl)butan-2-ylcarbamate] | 50 to 500 | – | 1

The next lines start with results.

IC50 [1] [nM] | SMILES | inhibition in vivo at 0.3 mg/kg [2] [%] | inhibition in vivo at 1 mg/kg [2] [%]
50 to 500 | CO[C@@H]1[C@H](OC(=O)N[C@H](c2ccc(N3CCOCC3)nc2)C(C)C)CC[C@]2(CO2)[C@H]1[C@@]1(C)O[C@@H]1CC=C(C)C [Example 26, (3R,4S,5S,6R)-5-methoxy-4-((2R,3R)-2-methyl-3-(3-methylbut-2-enyl)oxiran-2-yl)-1-oxaspiro[2.5]octan-6-yl (S)-2-methyl-1-(6-morpholinopyridin-3-yl)propylcarbamate] | 7.2 | –
50 to 500 | CO[C@@H]1[C@H](OC(=O)N[C@H](c2cn(C[C@H]3CCN(CC(F)F)C3)cn2)C(C)C)CC[C@]2(CO2)[C@H]1[C@@]1(C)O[C@@H]1CC=C(C)C [Example 18, (3R,4S,5S,6R)-5-methoxy-4-((2R,3R)-2-methyl-3-(3-methylbut-2-enyl)oxiran-2-yl)-1-oxaspiro[2.5]octan-6-yl (S)-1-(1-(((S)-1-(2,2-difluoroethyl)pyrrolidin-3-yl)methyl)-1H-imidazol-4-yl)-2-methylpropylcarbamate] | -0.4 | –
50 to 500 | CNc1nnc(C[C@H](NC(=O)O[C@@H]2CC[C@]3(CO3)[C@@H]([C@@]3(C)O[C@@H]3CC=C(C)C)[C@@H]2OC)C(C)C)s1 [Example 34, (3R,4S,5S,6R)-5-methoxy-4-((2R,3R)-2-methyl-3-(3-methylbut-2-enyl)oxiran-2-yl)-1-oxaspiro[2.5]octan-6-yl (S)-3-methyl-1-(5-(methylamino)-1,3,4-thiadiazol-2-yl)butan-2-ylcarbamate] | 3.4 | –
50 to 500 | CO[C@@H]1[C@H](OC(=O)N[C@@H](c2noc(=O)[nH]2)C(C)C)CC[C@]2(CO2)[C@H]1[C@@]1(C)O[C@@H]1CC=C(C)C [Example 11, (3R,4S,5S,6R)-5-methoxy-4-((2R,3R)-2-methyl-3-(3-methylbut-2-enyl)oxiran-2-yl)-1-oxaspiro[2.5]octan-6-yl (R)-2-methyl-1-(5-oxo-4,5-dihydro-1,2,4-oxadiazol-3-yl)propylcarbamate] | -1.3 | 6.6
50 to 500 | CNc1nnc(C[C@@H](NC(=O)O[C@@H]2CC[C@]3(CO3)[C@@H]([C@@]3(C)O[C@@H]3CC=C(C)C)[C@@H]2OC)C(C)C)o1 [Example 33, (3R,4S,5S,6R)-5-methoxy-4-((2R,3R)-2-methyl-3-(3-methylbut-2-enyl)oxiran-2-yl)-1-oxaspiro[2.5]octan-6-yl (R)-3-methyl-1-(5-(methylamino)-1,3,4-oxadiazol-2-yl)butan-2-ylcarbamate] | 3.7 | 1
< 50 | CO[C@@H]1[C@H](OC(=O)N[C@H](c2cc(=O)cc[nH]2)C(C)C)CC[C@]2(CO2)[C@H]1[C@@]1(C)O[C@@H]1CC=C(C)C [Example 20, (3R,4S,5S,6R)-5-methoxy-4-((2R,3R)-2-methyl-3-(3-methylbut-2-enyl)oxiran-2-yl)-1-oxaspiro[2.5]octan-6-yl (S)-2-methyl-1-(4-oxo-1,4-dihydropyridin-2-yl)propylcarbamate] | 3.4 | 3.3
< 50 | CO[C@@H]1[C@H](OC(=O)N[C@H](Cc2nnc[nH]2)C(C)C)CC[C@]2(CO2)[C@H]1[C@@]1(C)O[C@@H]1CC=C(C)C [Example 31, (3R,4S,5S,6R)-5-methoxy-4-((2R,3R)-2-methyl-3-(3-methylbut-2-enyl)oxiran-2-yl)-1-oxaspiro[2.5]octan-6-yl (R)-3-methyl-1-(4H-1,2,4-triazol-3-yl)butan-2-ylcarbamate] | 2.4 | 2.5
50 to 500 | CO[C@@H]1[C@H](OC(=O)NCC(C)(C)c2nnc[nH]2)CC[C@]2(CO2)[C@H]1[C@@]1(C)O[C@@H]1CC=C(C)C [Example 39, (3R,4S,5S,6R)-5-methoxy-4-((2R,3R)-2-methyl-3-(3-methylbut-2-enyl)oxiran-2-yl)-1-oxaspiro[2.5]octan-6-yl 2-methyl-2-(4H-1,2,4-triazol-3-yl)propylcarbamate] | 3.4 | 7.6
< 50 | CO[C@@H]1[C@H](OC(=O)N[C@H](c2c[nH]nn2)C(C)C)CC[C@]2(CO2)[C@H]1[C@@]1(C)O[C@@H]1CC=C(C)C [Example 21, (3R,4S,5S,6R)-5-methoxy-4-((2R,3R)-2-methyl-3-(3-methylbut-2-enyl)oxiran-2-yl)-1-oxaspiro[2.5]octan-6-yl (S)-2-methyl-1-(1H-1,2,3-triazol-4-yl)propylcarbamate] | – | –
